Assay results: patent publication US20160022684A1, “BET INHIBITOR AND BRUTON'S TYROSINE KINASE INHIBITOR COMBINATIONS” (Pharmacyclics LLC, priority 2014, published 2016)

How the values were obtained:
Format in all cases: cell-based
TMD8 = assay: Combined drug treatment cell viability (CellTiter-Glo), ibrutinib with BET inhibitors, TMD8; settings: JQ1 20 nM, 3 days
Method: (§1) The DLBCL cell lines used during the experiments included TMD8, OCI-LY3, OCI-LY10, U-2932 and SU-DHL-2. DLBCL cells at either 1×10^4 cells or 2×10^4 cells were plated onto each well of a 96-W plate (Table 1). […] The 96-W plate was then incubated for 3 days. Cell viability was examined using a CellTiter-Glo assay. A 40 μL of CellTiter-Glo reagent was added directly into each well of the 96-W plate. The plate was then shaken on a Shaker ([…]) at speed 5 for 10-20 min at room temperature. Next, about 100 μL of the mixed medium was transferred to a white, non-transparent, flat bottom 96-W plate for assaying. […] Measurements were taken at room temperature. CellTiter-Glow reagents were thawed prior to use. Cells pre-plated onto a second 96-W plate and incubated at room temperature for 30 minutes were used for calibration purposes. […] CI is a quantitative description of the interaction property of the combination of two drugs.

OCI-LY10 = assay: Combined drug treatment cell viability (CellTiter-Glo), ibrutinib with BET inhibitors, OCI-LY10; settings: OCI-LY-10, JQ1 1 uM, 3 days
Method: as §1

OCI-LY3 = assay: Combined drug treatment cell viability (CellTiter-Glo), ibrutinib with BET inhibitors, OCI-LY3; settings: OCI-LY-3, JQ1 1 uM, 3 days
Method: as §1

U-2932 = assay: Combined drug treatment cell viability (CellTiter-Glo), ibrutinib with BET inhibitors, U-2932; settings: U2932, JQ1 20 nM, 3 days
Method: as §1

SU-DHL-2 = assay: Combined drug treatment cell viability (CellTiter-Glo), ibrutinib with BET inhibitors, SU-DHL-2; settings: JQ1 100 nM, 3 days
Method: as §1

[1] = ibrutinib 0 nM (BET inhibitor alone): I-BET151 5 uM, OTX015 1 uM
[2] = ibrutinib 0.0256 nM with I-BET151 5 uM, OTX015 1 uM or medium alone (row)
[3] = ibrutinib 0.64 nM with I-BET151 5 uM, OTX015 1 uM or medium alone (row)
[4] = ibrutinib 3.2 nM with I-BET151 5 uM, OTX015 1 uM or medium alone (row)
[5] = ibrutinib 16 nM with I-BET151 5 uM, OTX015 1 uM or medium alone (row)
[6] = ibrutinib 80 nM with I-BET151 5 uM, OTX015 1 uM or medium alone (row)
[7] = ibrutinib 400 nM with I-BET151 5 uM, OTX015 1 uM or medium alone (row)
[8] = ibrutinib 2000 nM with I-BET151 5 uM, OTX015 1 uM or medium alone (row)
[9] = ibrutinib 10000 nM with I-BET151 5 uM, OTX015 1 uM or medium alone (row)
[10] = ibrutinib […] with I-BET151 5 uM, OTX015 1 uM or medium alone (row)

## COc1cc2c(cc1-c1c(C)noc1C)ncc1[nH]c(=O)n([C@H](C)c3ccccn3)c12 [I-BET151]
TMD8; ibrutinib 0 nM (BET inhibitor alone): I-BET151 200 nM, OTX015 100 nM
  luminescent signals: 53526.63
TMD8; ibrutinib 0.0256 nM with I-BET151 200 nM, OTX015 100 nM or medium alone (row)
  luminescent signals: 14177.65
TMD8; ibrutinib 0.64 nM with I-BET151 200 nM, OTX015 100 nM or medium alone (row)
  luminescent signals: 12722.72
TMD8; ibrutinib 3.2 nM with I-BET151 200 nM, OTX015 100 nM or medium alone (row)
  luminescent signals: 11655.25
TMD8; ibrutinib 16 nM with I-BET151 200 nM, OTX015 100 nM or medium alone (row)
  luminescent signals: 11328.42
TMD8; ibrutinib 80 nM with I-BET151 200 nM, OTX015 100 nM or medium alone (row)
  luminescent signals: 11526.1
TMD8; ibrutinib 400 nM with I-BET151 200 nM, OTX015 100 nM or medium alone (row)
  luminescent signals: 11191.36
TMD8; ibrutinib 2000 nM with I-BET151 200 nM, OTX015 100 nM or medium alone (row)
  luminescent signals: 11183.45
TMD8; ibrutinib 10000 nM with I-BET151 200 nM, OTX015 100 nM or medium alone (row)
  luminescent signals: 6995.257
TMD8; ibrutinib […] with I-BET151 200 nM, OTX015 100 nM or medium alone (row)
  luminescent signals: 13950.98
OCI-LY10; [1]
  luminescent signals: 43633.29
OCI-LY10; [2]
  luminescent signals: 41108.85
OCI-LY10; [3]
  luminescent signals: 38594.93
OCI-LY10; [4]
  luminescent signals: 31834.18
OCI-LY10; [5]
  luminescent signals: 23382.58
OCI-LY10; [6]
  luminescent signals: 21683.85
OCI-LY10; [7]
  luminescent signals: 21781.14
OCI-LY10; [8]
  luminescent signals: 22475.36
OCI-LY10; [9]
  luminescent signals: 21920.51
OCI-LY10; [10]
  luminescent signals: 38721.15
OCI-LY3; [1]
  luminescent signals: 14156.55
OCI-LY3; [2]
  luminescent signals: 15418.7
OCI-LY3; [3]
  luminescent signals: 15156.3
OCI-LY3; [4]
  luminescent signals: 13849.54
OCI-LY3; [5]
  luminescent signals: 14914.89
OCI-LY3; [6]
  luminescent signals: 13899.4
OCI-LY3; [7]
  luminescent signals: 15392.46
OCI-LY3; [8]
  luminescent signals: 13151.56
OCI-LY3; [9]
  luminescent signals: 14424.2
OCI-LY3; [10]
  luminescent signals: 12962.63
U-2932; ibrutinib 0 nM (BET inhibitor alone): I-BET151 200 nM, OTX015 50 nM (Table 2)
  luminescent signals: 50367.82
U-2932; ibrutinib 0.0256 nM with I-BET151 200 nM, OTX015 50 nM (Table 2) or medium alone (row)
  luminescent signals: 45116.29
U-2932; ibrutinib 0.64 nM with I-BET151 200 nM, OTX015 50 nM (Table 2) or medium alone (row)
  luminescent signals: 42565.61
U-2932; ibrutinib 3.2 nM with I-BET151 200 nM, OTX015 50 nM (Table 2) or medium alone (row)
  luminescent signals: 43472.05
U-2932; ibrutinib 16 nM with I-BET151 200 nM, OTX015 50 nM (Table 2) or medium alone (row)
  luminescent signals: 43980.61
U-2932; ibrutinib 80 nM with I-BET151 200 nM, OTX015 50 nM (Table 2) or medium alone (row)
  luminescent signals: 43659.14
U-2932; ibrutinib 400 nM with I-BET151 200 nM, OTX015 50 nM (Table 2) or medium alone (row)
  luminescent signals: 44468.08
U-2932; ibrutinib 2000 nM with I-BET151 200 nM, OTX015 50 nM (Table 2) or medium alone (row)
  luminescent signals: 42568.25
U-2932; ibrutinib 10000 nM with I-BET151 200 nM, OTX015 50 nM (Table 2) or medium alone (row)
  luminescent signals: 32015.12
U-2932; ibrutinib […] with I-BET151 200 nM, OTX015 50 nM (Table 2) or medium alone (row)
  luminescent signals: 44167.69
SU-DHL-2; ibrutinib 0 nM (BET inhibitor alone): I-BET151 2 uM, OTX015 1 uM (Table 2)
  luminescent signals: 793.343
SU-DHL-2; ibrutinib 0.0256 nM with I-BET151 2 uM, OTX015 1 uM (Table 2) or medium alone (row)
  luminescent signals: 714.534
SU-DHL-2; ibrutinib 0.64 nM with I-BET151 2 uM, OTX015 1 uM (Table 2) or medium alone (row)
  luminescent signals: 704.027
SU-DHL-2; ibrutinib 3.2 nM with I-BET151 2 uM, OTX015 1 uM (Table 2) or medium alone (row)
  luminescent signals: 809.105
SU-DHL-2; ibrutinib 16 nM with I-BET151 2 uM, OTX015 1 uM (Table 2) or medium alone (row)
  luminescent signals: 843.256
SU-DHL-2; ibrutinib 80 nM with I-BET151 2 uM, OTX015 1 uM (Table 2) or medium alone (row)
  luminescent signals: 922.065
SU-DHL-2; ibrutinib 400 nM with I-BET151 2 uM, OTX015 1 uM (Table 2) or medium alone (row)
  luminescent signals: 798.597
SU-DHL-2; ibrutinib 2000 nM with I-BET151 2 uM, OTX015 1 uM (Table 2) or medium alone (row)
  luminescent signals: 717.161
SU-DHL-2; ibrutinib 10000 nM with I-BET151 2 uM, OTX015 1 uM (Table 2) or medium alone (row)
  luminescent signals: 585.813
SU-DHL-2; ibrutinib […] with I-BET151 2 uM, OTX015 1 uM (Table 2) or medium alone (row)
  luminescent signals: 835.375
